Measured values as given in US11147801B2, “Methods of use for trisubstituted benzotriazole derivatives as dihydroorotate oxygenase inhibitors” (Aurigene Discovery Technologies Limited, priority 2017, dated 2021).

Key:
[1] = test system: Ramos cells; test: Ramos proliferation assay (XTT); type: cell-based; settings: Homo sapiens, 72 hrs; for inhibition at 30 µM: read-out: Maximum % Inhibition at 30 μM; for IC50: XTT
From the text: Cell proliferation assay is a sensitive method for quantification of viable cells in cytotoxicity or proliferation assay. The XTT (2,3-bis[2-Methoxy-4-nitro-5-sulfophenyl]-2 H-tetrazolium-5-carboxyanilide inner salt) system is a means of measuring the activity of living cells via mitochondrial dehydrogenases. Mitochondrial dehydrogenases of viable cells cleave the tetrazolium ring of XTT, yielding orange formazon crystals which are soluble in aqueous solutions. The XTT solution is potentiated by the addition of an electron coupling agent, phenazine methosulphate (PMS) to the reaction. The resulting orange colour is spectrophotometrically measured at 450 nm. An increase or decrease in cell numbers results in a concomitant change in the amount of formazon formed, indicating the degree of cytotoxicity caused by the test material.
Dissolve 17.7 g IMDM (Iscove's Modified Dulbecco's Medium) powder, 1.5 g sodium bicarbonate pH 7.2-7.4 in 1 L MiliQ water, add 1% Pencilin/ Streptomycin and 10% FBS.
Dissolve 10.6 g Ham's F12 powder, 1.5 g sodium bicarbonate pH 7.2-7.4 in 1 L MiliQ water, add 1% Penicillin/Streptomycin. DMSO used as vehicle.
Ramos cells were re-suspended to a density of 1×10^5 cells/ ml in complete IMDM medium. 95 μL of this cell suspension was added to the 96-well plate to seed ˜10,000 cells per well. The plates were incubated at 37° C. under a humidified atmosphere of 5% CO2 for ˜1 hour before compound addition.
Test compounds (Refer to Table 1) were dissolved in 100% DMSO to generate a 2/6/10/20 mM stock solution. A 200× concentration of the required final concentrations was prepared in DMSO. 10 μL of each concentration (200×) was then diluted in 90 μL of serum-free Ham's F12 medium to get an intermediate concentration of 20× in medium. The DMSO concentration in this step is 10% (Intermediate dilution). 5 μL of each intermediate dilution was then added in triplicates in the previously seeded 96-well plate. The final DMSO concentration was 0.5% in the experimental wells. Cells treated with 0.5% DMSO served as positive control. 100 μL, of complete IMDM medium served as media blank for data analysis. 200 μL, of 1× PBS was added in all corner wells of the assay plate. Plates were then incubated for 72 hrs in an incubator with 5% CO2 at 37° C.
On termination day, 100 μl of XTT solution (1 mg/ml XTT supplemented with 25 μM PMS in Ham's F12 medium) was added to each well. Plates were incubated for 2 hrs. The amount of formazon produced was determined by reading the absorbance of the plate using VICTOR X5 multilabel plate reader at wavelength of 450 nm. The IC50 values were determined as concentrations that reduced cell viability by 50% and the curve was plotted with GraphPad Prism 6.0.
Percent (%) Inhibition was calculated by normalizing DMSO control values to 100% using the formula: % Inhibition=[…](Abs450test compound−blank)/(Abs450positive control−blank)*100
Test compound contains cells, test compound, IMDM medium and 0.5% DMSO
Positive control contains cells, IMDM medium and 0.5% DMSO
Blank contains IMDM medium

[2] = biological target: DHODH (Homo sapiens (Human), UniProt Q02127); test: DHODH activity assay (coupled enzyme assay, DCIP reduction); type: biochemical; settings: read-out: DHODH inhibition activity, IC50 group
DHODH, sequence (Q02127 whole entry): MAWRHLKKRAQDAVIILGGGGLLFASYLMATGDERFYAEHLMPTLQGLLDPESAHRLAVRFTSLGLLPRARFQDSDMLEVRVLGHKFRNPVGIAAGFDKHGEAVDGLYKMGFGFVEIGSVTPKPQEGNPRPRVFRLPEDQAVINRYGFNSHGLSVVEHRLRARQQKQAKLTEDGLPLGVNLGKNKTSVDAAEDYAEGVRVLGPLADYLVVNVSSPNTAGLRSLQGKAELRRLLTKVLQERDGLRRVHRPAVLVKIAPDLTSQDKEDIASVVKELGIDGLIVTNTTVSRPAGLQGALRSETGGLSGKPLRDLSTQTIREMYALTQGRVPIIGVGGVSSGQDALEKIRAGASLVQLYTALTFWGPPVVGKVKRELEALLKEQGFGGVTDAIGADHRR
Method: The DHODH activity assay is a coupled enzyme assay in which oxidation of DHO and subsequent reduction of ubiquinone are stoichiometrically equivalent to the reduction of DCIP ([…]). The reduction of DCIP is accompanied by a loss of absorbance at 610 nm.
Buffer Preparation: 50 mM tris HCl, 150 mM KCl, and pH 8.0, 0.8% triton.
L-Dihydroorotic acid stock solution of 20 mM in buffer.
2, 6-Dichloroindophenol Sodium salt hydrate stock solution of 20 mM in buffer.
Decylubiquinone stock solution of 20 mM in buffer.
5 μL of Dimethyl sulfoxide or a compound of formula (I) in DMSO solution was added to the wells of a 96 well plate. Compounds of formula (I) were measured at 10 μM.
Protein along with buffer was added, so that the total volume including the DMSO was 87 μL. Compound and protein were incubated for half an hour at room temperature after mixing. 5 μL of 20 mM solution of L-Dihydroorotic acid, 5 μL of 2 mM solution of Decylubiquinone and 3 μL of 2 mM solution of 2, 6-Dichloroindophenol sodium salt hydrate were added to the above solution (total assay volume 100 μL). The mixture was stirred for 2 min and absorbance was recorded at every 10 min at 610 nanometers.
Percent inhibition is calculated as follows: […]
A 2 mM DMSO stock solution of the selected trisubstituted benzoimidazole and benzotriazole derivatives of formula (I) of the present invention to be examined was prepared. Subsequent ⅓rd dilutions were made.
5 μL of each stock of compound of formula (I) was used for each 100 μL assay. Therefore, 5 μL of the 2 mM stock provided 100 μL of 100 μM solution of compound of formula (I), when made up with buffer, protein and substrate. See also: Ulrich et al. (2001) Eur. J. Biochem.268, 1861-1868.

| Compound | inhibition at 30 µM [1] [%] | IC50 [2] [nM] | IC50 [1] [nM] | inhibition at 10 µM ([1]; 10 μM, read-out: Maximum % Inhibition (at 10 μM)) [%] |
| --- | --- | --- | --- | --- |
| Cn1nnc2cc(-c3ccc(-c4cccc(CN5CCCC5)c4)cc3)cc(C(=O)O)c21 [Compound 17, 1-methyl-5-(3′-(pyrrolidin-1-ylmethyl)-[1,1′-biphenyl]-4-yl)-1H-benzo[d][1,2,3]triazole-7-carboxylic acid] | 50 | > 1000 |  |  |
| CN1CCN(Cc2cccc(-c3c(F)c(F)c(-c4cc(C(=O)O)c5c(c4)nnn5C)c(F)c3F)c2)CC1 [Compound 35, 1-methyl-5-(2,3,5,6-tetrafluoro-3′-((4-methylpiperazin-1-yl)methyl)-[1,1′-biphenyl]-4-yl)-1H-benzo[d][1,2,3]triazole-7-carboxylic acid] |  | > 1000 |  |  |
| Cn1nc2cc(-c3c(F)c(F)c(-c4cccc(CN5CCOCC5)c4)c(F)c3F)cc(C(=O)O)c2n1 [Compound 39, 2-methyl-6-(2,3,5,6-tetrafluoro-3′-(morpholinomethyl)-[1,1′-biphenyl]-4-yl)-2H-benzo[d][1,2,3]triazole-4-carboxylic acid] | 96 | 101 to 1000 | 1870 |  |
| Cn1nc2cc(-c3c(F)c(F)c(-c4cccc(CN5CCCCC5)c4)c(F)c3F)cc(C(=O)O)c2n1 [Compound 38, 2-methyl-6-(2,3,5,6-tetrafluoro-3′-(piperidin-1-ylmethyl)-[1,1′-biphenyl]-4-yl)-2H-benzo[d][1,2,3]triazole-4-carboxylic acid] | 92 | 101 to 1000 | 1600 |  |
| Cn1nnc2c(C(=O)O)cc(-c3ccc(-c4cccc(CN5CCCCC5)c4)cc3)cc21 [Compound 20, 1-methyl-6-(3′-(piperidin-1-ylmethyl)-[1,1′-biphenyl]-4-yl)-1H-benzo[d][1,2,3]triazole-4-carboxylic acid] | 129 | > 1000 | 3720 |  |
| Cc1ccc(C)n1-c1ccc(-c2cc(C(=O)O)c3c(c2)nnn3C)cc1 [Compound 12, 5-(4-(2,5-dimethyl-1H-pyrrol-1-yl)phenyl)-1-methyl-1H-benzo[d][1,2,3]triazole-7-carboxylic acid] | 103 | < 100 | 362 |  |
| Cn1nnc2cc(-c3ccc(-c4ccccc4)cc3)cc(C(=O)O)c21 [Compound 3, 5-([1,1′-biphenyl]-4-yl)-1-methyl-1H-benzo[d][1,2,3]triazole-7-carboxylic acid] | 113 | 101 to 1000 | 524 |  |
| Cc1ccc(C)n1-c1ccc(-c2cc(C(=O)O)c3nn(C)nc3c2)cc1 [Compound 13, 6-(4-(2,5-dimethyl-1H-pyrrol-1-yl)phenyl)-2-methyl-2H-benzo[d][1,2,3]triazole-4-carboxylic acid] | 100 | 101 to 1000 | 3880 |  |
| Cn1nnc2cc(-c3ccc(-c4ccc(CN5CCOCC5)cc4)cc3)cc(C(=O)O)c21 [Compound 31, 1-methyl-5-(4′-(morpholinomethyl)-[1,1′-biphenyl]-4-yl)-1H-benzo[d][1,2,3]triazole-7-carboxylic acid] |  | > 1000 | 1350 | 81 |
| Cn1nc2cc(-c3ccc(-c4ccccc4CN4CCOCC4)cc3)cc(C(=O)O)c2n1 [Compound 26, 2-methyl-6-(2′-(morpholinomethyl)-[1,1′-biphenyl]-4-yl)-2H-benzo[d][1,2,3]triazole-4-carboxylic acid] | 133 | > 1000 | 4260 |  |
| CC(=O)Nc1cccc(-c2ccc(-c3cc(C(=O)O)c4c(c3)nnn4C)cc2)c1 [Compound 32, 5-(3′-acetamido-[1,1′-biphenyl]-4-yl)-1-methyl-1H-benzo[d][1,2,3]triazole-7-carboxylic acid] | 74 | > 1000 | 14600 |  |
| Cn1nnc2cc(-c3c(F)c(F)c(-c4cccc(CN5CCOCC5)c4)c(F)c3F)cc(C(=O)O)c21 [Compound 33, 1-methyl-5-(2,3,5,6-tetrafluoro-3′-(morpholinomethyl)-[1,1′-biphenyl]-4-yl)-1H-benzo[d][1,2,3]triazole-7-carboxylic acid] |  | 101 to 1000 |  |  |
| Cn1nnc2cc(-c3c(F)c(F)c(-c4ccccc4)c(F)c3F)cc(C(=O)O)c21 [Compound 19, 1-methyl-5-(2,3,5,6-tetrafluoro-[1,1′-biphenyl]-4-yl)-1H-benzo[d][1,2,3]triazole-7-carboxylic acid] | 106 | < 100 | 70 |  |
| Cn1nnc2cc(-c3ccc(-c4cccc(CN5CCOCC5)c4)cc3)cc(C(=O)O)c21 [Compound 15, 1-methyl-5-(3′-(morpholinomethyl)-[1,1′-biphenyl]-4-yl)-1H-benzo[d][1,2,3]triazole-7-carboxylic acid] | 96 | > 1000 | 8410 |  |
| Cn1nnc2cc(-c3ccc(-c4ccccc4CN4CCOCC4)cc3)cc(C(=O)O)c21 [Compound 25, 1-methyl-5-(2′-(morpholinomethyl)-[1,1′-biphenyl]-4-yl)-1H-benzo[d][1,2,3]triazole-7-carboxylic acid] | 120 | 101 to 1000 | 2820 |  |
| CN(C)Cc1cccc(-c2c(F)c(F)c(-c3cc(C(=O)O)c4c(c3)nnn4C)c(F)c2F)c1 [Compound 40, 5-(3′-((dimethylamino)methyl)-2,3,5,6-tetrafluoro-[1,1′-biphenyl]-4-yl)-1-methyl-1H-benzo[d][1,2,3]triazole-7-carboxylic acid] | 84 | 101 to 1000 | 11800 |  |
| Cc1ccccc1-c1ccc(-c2cc(C(N)=O)c3c(c2)nnn3C)cc1 [Compound 2, 1-methyl-5-(2′-methyl-[1,1′-biphenyl]-4-yl)-1H-benzo[d] [1,2,3]triazole-7-carboxamide] | 95 | < 100 | 1090 |  |
| Cn1nnc2cc(-c3ccc(-c4ccccc4CN4CCCC4)cc3)cc(C(=O)O)c21 [Compound 27, 1-methyl-5-(2′-(pyrrolidin-1-ylmethyl)-[1,1′-biphenyl]-4-yl)-1H-benzo[d][1,2,3]triazole-7-carboxylic acid] | 89 | > 1000 | 3050 |  |
| CC(C)NCc1cccc(-c2c(F)c(F)c(-c3cc(C(=O)O)c4c(c3)nnn4C)c(F)c2F)c1 [Compound 36, 1-methyl-5-(2,3,5,6-tetrafluoro-3′-((isopropylamino)methyl)-[1,1′-biphenyl]-4-yl)-1H-benzo[d][1,2,3]triazole-7-carboxylic acid] |  | 101 to 1000 |  |  |
| CNCc1cccc(-c2c(F)c(F)c(-c3cc(C(=O)O)c4c(c3)nnn4C)c(F)c2F)c1 [Compound 37, 1-methyl-5-(2,3,5,6-tetrafluoro-3′-((methylamino)methyl)-[1,1′-biphenyl]-4-yl)-1H-benzo[d][1,2,3]triazole-7-carboxylic acid] |  | > 1000 |  |  |
